# Source: US20230183746A1, “COMPOSITIONS FOR TRANSFER OF CARGO TO CELLS” (Sixfold Bioscience Ltd., priority 2019, published 2023)
# Entries after “also recorded” stand apart in the source; their conditions may differ. {Cy5} = Cy5 fluorescent dye; r = 2'-OH (RNA); f = 2'-fluoro
# What was measured:
# [1] = tested on: EGFRvIII overexpressing HEK293T cells; experiment: FACS based fluorescent molecule uptake assay; assay type: cell-based; conditions: 200 nM, 2 hours
# From the text: A number of different cell types have been trialled for a FACS based fluorescent molecule uptake assay. These include stably transfected HEK293T cells overexpressing the truncated mutant EGFRvIII, which is characterised by a deletion of 267 amino acids in the extracellular domain and results in a receptor unable to bind ligand yet constitutively active. WT cells with various endogenous levels of EGFR expression have also been trialled: HELA cells (EGFR+), MCF-7 (EGFR-), MDA-MB-231 (EGFR+), and A549 (EGFR+). Seeding densities used were identical for all experiments and described below.
# Cells were plated with 1x10^5 cells per well of 24 well plates. 24 hours later cells were treated with 200 nM of specified aptamer (A-1.0 or A-2.0) or nucleic acid nanoparticle in 250 µL DMEM media for 2 hours. To terminate internalisation, media was removed from cells and washed with 500 µL Dulbecco’s Phosphate Buffered Saline (D-PBS), followed by trypsinisation, neutralisation in DMEM media and transfer to labelled 1.5 mL Eppendorf tubes. […]
# Geometric mean quantification of flow cytometry results after normalisation by removal of respective background fluorescence in untreated cells. Numbers above the bars are calculated fold increase in internalisation between control and EGFRvIII overexpressing HEK293T cells. […]
# [2] = tested on: cancer cells expressing EGFR; experiment: confocal microscopy of Cy5-labelled aptamer/construct uptake; assay type: cell-based; conditions: live HeLa cells, 200 nM, Lysotracker and early endosome GFP stains
# Method: Cells were imaged by confocal microscopy after treatment with 200 nM Cy5-labelled E07min aptamer (A-1.0) or 200 nM Cy5-labelled constructs (SQ1-1000-001). For aptamer uptake experiments, 1x10^4 cells were plated in each well of a µ-Slide 8 well ibiditreat chamber (IBIDI), in 300 µL DMEM containing 10% v/v FBS. For uptake experiments, 3.4x10^3 cells (HeLa, MDA-MB-231 and A549 cells) or 6.8x10^3 cells (Mcf-7) were plated in each well of a µ-Slide 18 well ibiditreat chamber (IBIDI), in 100 µL DMEM containing 10% v/v FBS. 5 hours after cells had adhered and 48 hours before imaging, media was replaced with 50 particles per cell (PPC) CellLight early endosome-GFP (Thermo Fisher Scientific) for overnight incubation at 37° C. Additionally, 200 µL DMEM aliquots containing 200 nM aptamer were added to cells at corresponding incubation time points. Subsequently, media was removed and replaced with 60 nM LysoTracker Red DND-99 (Thermo Fisher Scientific) in 100-200 µL DMEM for 1 hour at 37° C. Cells were then washed once with Hank’s Balanced Salt Solution (HBSS) (Gibco). Finally, 100-200 µL imaging media (HBSS buffered with 20 mM 4-(2- hydroxyethyl)-1-piperazineethanesulfonic acid (HEPES), adjusted to pH 7.4) was added to cells. Confocal images were captured with an EVOS microscope or a Zeiss LSM510 laser scanning microscope using 60x oil objective lens. Images were produced using ImageJ software.
substance,measurement,setting,value
"[Cy5] GGAcGGAuuuAAucGccGuAGAAAAGCAuGucAAAGccGGAAccGucc (GGACGGAUUUAAUCGCCGUAGAAAAGCAUGUCAAAGCCGGAACCGUCC; sugars from the 5' end rrrfrrrfffrrffrffrfrrrrrrrrrfrffrrrrffrrrrffrfff, 5' {Cy5}, backbone not given here) [A-1.0, 2′F U, C 5′ Cy5 E07min (SXF1) aptamer, anti-EGFR, literature-known]",EGFR targeting specificity compared to a scramble control aptamer (A-3.0),[1]; control vs EGFRvIII overexpressing HEK293T cells,10 fold
same,specificity of uptake (flow cytometry),[1]; Cy5-labelled aptamer,more specifically uptaken than SXF2 (CL4 aptamer); also recorded: specifically uptaken by EGFR expressing cells
same,intracellular localisation after internalisation,[2],accumulate in lysosomes after internalisation
